Assays:
Liver microsome = experiment: Drug metabolism in human liver microsomes assessed as 3'-hydroxy repaglinide formation by LC-MS/MS method; type: ADME
[1] = Drug metabolism in human hepatic S9 fraction assessed as 3'-hydroxy repaglinide formation by LC-MS/MS method; type: ADME, Liver
Hepatocyte = experiment: Drug metabolism in human hepatocytes assessed as 2-despiperidyl-2-amino repaglinide formation measured per 10^6 cells at 0.5 to 150 uM by LC-MS/MS method; type: ADME, cell-based
Cytochrome P450 2C8 [2] = target: T1, Cytochrome P450 2C8 (Homo sapiens, UniProt P10632); experiment: Fraction metabolism via CYP2C8 in human hepatocytes; type: ADME, cell-based, Hepatocyte
T1 sequence (P10632 whole entry): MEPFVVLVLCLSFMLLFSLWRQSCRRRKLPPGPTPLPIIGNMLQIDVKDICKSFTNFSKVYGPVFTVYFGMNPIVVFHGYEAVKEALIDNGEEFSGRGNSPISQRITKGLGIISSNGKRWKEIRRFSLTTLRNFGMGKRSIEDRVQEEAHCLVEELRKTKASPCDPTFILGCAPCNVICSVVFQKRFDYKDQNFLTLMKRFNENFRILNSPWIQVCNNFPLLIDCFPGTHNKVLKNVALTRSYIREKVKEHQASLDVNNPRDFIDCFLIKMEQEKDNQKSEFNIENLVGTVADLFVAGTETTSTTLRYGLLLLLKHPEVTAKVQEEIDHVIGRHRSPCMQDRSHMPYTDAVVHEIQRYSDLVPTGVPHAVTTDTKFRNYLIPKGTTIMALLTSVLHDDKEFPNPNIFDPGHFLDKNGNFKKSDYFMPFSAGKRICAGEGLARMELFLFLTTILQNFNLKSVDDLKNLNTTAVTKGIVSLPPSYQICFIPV

Cytochrome P450 2C8 [3] = target: T1, Cytochrome P450 2C8; experiment: Fraction metabolism via CYP2C8 in human hepatic S9 fraction; type: ADME, Liver
Cytochrome P450 3A4 = Cytochrome P450 3A4 (Homo sapiens, UniProt P08684); experiment: Fraction metabolism via CYP3A4 in human hepatic S9 fraction; type: ADME, Liver
Chain of Cytochrome P450 3A4 (P08684 whole entry): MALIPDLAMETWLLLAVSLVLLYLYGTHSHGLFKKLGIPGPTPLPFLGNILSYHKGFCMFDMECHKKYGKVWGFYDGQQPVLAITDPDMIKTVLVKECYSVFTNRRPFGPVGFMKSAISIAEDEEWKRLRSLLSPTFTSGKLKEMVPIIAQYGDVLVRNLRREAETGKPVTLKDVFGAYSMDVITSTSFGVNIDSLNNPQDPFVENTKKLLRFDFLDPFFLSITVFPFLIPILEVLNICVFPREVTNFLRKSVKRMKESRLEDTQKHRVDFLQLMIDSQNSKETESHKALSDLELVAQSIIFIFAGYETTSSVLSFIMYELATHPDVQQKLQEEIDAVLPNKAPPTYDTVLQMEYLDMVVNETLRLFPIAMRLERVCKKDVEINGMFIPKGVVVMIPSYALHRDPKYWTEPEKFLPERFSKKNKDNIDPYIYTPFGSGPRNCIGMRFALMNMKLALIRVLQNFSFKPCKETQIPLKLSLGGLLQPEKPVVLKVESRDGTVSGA

[4] = Half life in type 2 diabetes patient; type: ADME, organism-based; settings: human, in vivo
Homo sapiens [5] = species: Homo sapiens; experiment: Drug metabolism in human patient assessed as fold change in metabolite M2/M4 AUC ratio at 0.25 mg co-treated with gemfibrozil on various time intervals relative to gemfibrozil non-treated patient; type: ADME, organism-based; settings: in vivo
Homo sapiens [6] = species: Homo sapiens; experiment: Drug metabolism in human patient assessed as fold change in metabolite M2/M4 AUC ratio at 0.25 mg co-treated with telithromycin relative to telithromycin non-treated patient; type: ADME, organism-based; settings: in vivo
Homo sapiens [7] = species: Homo sapiens; experiment: Drug metabolism in human patient assessed as fold change in metabolite M2/M4 AUC ratio at 0.25 mg co-treated with telithromycin and montelukast relative to telithromycin and montelukast non-treated patient; type: ADME, organism-based; settings: in vivo
Homo sapiens [8] = species: Homo sapiens; experiment: Ratio of AUC in human patient at 0.25 mg to AUC in human patient at 0.25 mg co-treated with clarithromycin; type: ADME, organism-based; settings: in vivo
[9] = Drug metabolism in human hepatocytes assessed as glucuronide formation by LC-MS/MS method; type: ADME, cell-based, Hepatocyte
[10] = Drug metabolism in human hepatic S9 fraction assessed as glucuronide formation by LC-MS/MS method; type: ADME, Liver

Km (Liver microsome): 9 µM
Km [1]: 13 µM
Vmax (Hepatocyte): 23 pmol/min/10^6cells
Fm (Cytochrome P450 2C8 [2]): 0.49
Fm (Cytochrome P450 2C8 [3]): 0.41
Fm (Cytochrome P450 3A4): 0.39
half-life [4]: 1 h
fold change (FC) (Homo sapiens [5]): 0.94
fold change (FC) (Homo sapiens [6]): 0.8
fold change (FC) (Homo sapiens [7]): 0.82
Ratio (Homo sapiens [8]): 1.4
Km [9]: 53 µM
Km [10]: 47 µM
SMILES: CCOc1cc(CC(=O)N[C@@H](CC(C)C)c2ccccc2N2CCCCC2)ccc1C(=O)O [REPAGLINIDE]

Source: ChEMBL document CHEMBL3525906, “A comprehensive assessment of repaglinide metabolic pathways: impact of choice of in vitro system and relative enzyme contribution to in vitro clearance” (Drug Metab Dispos, 2012)
